In article PMC10578023 (Cell Communication and Signaling : CCS, 2023):

How the values were obtained:
JAK1 (JH1) = JAK1 (JH1) (Homo sapiens, UniProt P23458); experiment: JH1 kinase assay, HTRF KinEASE-TK; type: biochemical
Procedure: We measured the ability of a compound to bind to JAK1/2/3 and the TYK2 JH1 domain by using HTRF® KinEASE™-TK kits (Millipore, Bedford, MA, USA). […] Next, SA-XL665 and TK antibody-Eu3 were added to the detection buffer and incubated for 1 h at RT. The HTRF signal was measured on a plate reader (Envision).

TYK2/JAK1 [1] = experiment: IL-23 HEK293 reporter assay; type: cell-based, human
TYK2/JAK1 [2] = experiment: IFNα-stimulated pSTAT5 in human PBMC (CD3+), FACS; type: cell-based
Procedure: With regard to IFNα-stimulated phosphorylation of STAT5 in human peripheral blood mononuclear cells (PBMCs), after incubation with QL-1200186 for 1 h, human PBMCs were stimulated with recombinant human IFNα (1000 U/mL; 11200–2; PBL Assay Science) for 30 min.
The stimulations stated above were terminated with prewarmed Lyse/Fix Buffer (558,049; BD Biosciences, San Jose, CA, USA) for 10 min. Cells were stained with an anti-cluster of differentiation (CD)3 fluorescein isothiocyanate (FITC) antibody (required for PBMCs but not for the other cell types), washed, and permeabilized on ice using Perm III Buffer (558,050; BD Biosciences) prior to staining with an Alexa Fluor 647 anti-phosphorylated (p)STAT5 (pY694) antibody for 30 min and analyzed by flow cytometry. Phosphorylation of STAT5 was quantified by the median fluorescence intensity (MFI) after gating on the CD3-positive population.

TYK2/JAK1 [3] = experiment: IFNα-induced pSTAT1 in CD3+ T cells of human PBMCs; type: cell-based
Procedure: The reaction was terminated by collecting cells for surface staining. Cells were stained with anti-CD3 FITC (300406; Biolegend, San Diego, CA, USA), anti-CD19 APC (555415; BD Biosciences) or aqua fluorescent reactive dye BV421 (L34966A; Invitrogen, Carlsbad, CA, USA) antibodies for 20 min. After washing, fixation buffer (557870; BD Biosciences) was added and incubated for 10 min. Cells were washed and permeabilized on ice using Perm III Buffer (558050; BD Biosciences). Cells were stained with PE anti-PSTAT1 antibody (562069; BD Biosciences) for 30 min and analyzed by flow cytometry.

TYK2 = molecular target: T1, TYK2 (Homo sapiens, UniProt P29597); experiment: IFNα-stimulated TYK2 phosphorylation in Jurkat cells, western blot; type: cell-based; settings: IFNα 1000 U/mL
T1 construct: host or cells: Jurkat cells
T1 sequence (P29597 whole entry): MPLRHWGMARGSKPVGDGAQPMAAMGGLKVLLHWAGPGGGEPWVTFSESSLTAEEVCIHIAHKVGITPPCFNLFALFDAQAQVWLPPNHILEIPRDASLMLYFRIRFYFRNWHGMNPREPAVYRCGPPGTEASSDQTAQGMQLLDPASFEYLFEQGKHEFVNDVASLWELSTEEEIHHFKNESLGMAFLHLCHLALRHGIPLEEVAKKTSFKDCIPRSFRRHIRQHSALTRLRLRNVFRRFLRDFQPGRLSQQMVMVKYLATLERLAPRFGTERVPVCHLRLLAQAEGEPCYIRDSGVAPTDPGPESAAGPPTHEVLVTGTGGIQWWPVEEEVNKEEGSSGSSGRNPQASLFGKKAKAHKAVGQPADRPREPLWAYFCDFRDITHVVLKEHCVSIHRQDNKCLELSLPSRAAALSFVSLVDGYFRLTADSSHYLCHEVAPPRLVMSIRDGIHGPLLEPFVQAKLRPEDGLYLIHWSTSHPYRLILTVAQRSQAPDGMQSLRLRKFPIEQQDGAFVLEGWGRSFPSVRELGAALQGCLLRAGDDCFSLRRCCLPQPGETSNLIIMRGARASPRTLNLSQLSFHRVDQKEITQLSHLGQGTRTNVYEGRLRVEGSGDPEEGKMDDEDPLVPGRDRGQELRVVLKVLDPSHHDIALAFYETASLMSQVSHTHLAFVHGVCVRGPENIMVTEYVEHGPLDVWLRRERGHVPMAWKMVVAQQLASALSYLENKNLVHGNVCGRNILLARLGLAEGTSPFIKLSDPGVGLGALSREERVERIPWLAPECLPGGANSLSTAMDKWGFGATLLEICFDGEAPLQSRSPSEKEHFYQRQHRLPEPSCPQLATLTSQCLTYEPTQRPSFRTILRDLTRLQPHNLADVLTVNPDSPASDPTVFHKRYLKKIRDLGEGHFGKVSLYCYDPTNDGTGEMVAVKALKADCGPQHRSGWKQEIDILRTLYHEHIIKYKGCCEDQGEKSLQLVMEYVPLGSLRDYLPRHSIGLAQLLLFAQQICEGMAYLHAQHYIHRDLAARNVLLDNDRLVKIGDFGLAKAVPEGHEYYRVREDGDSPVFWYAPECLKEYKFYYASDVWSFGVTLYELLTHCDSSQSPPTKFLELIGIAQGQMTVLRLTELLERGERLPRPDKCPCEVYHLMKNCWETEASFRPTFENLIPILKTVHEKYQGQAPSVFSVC
Excerpt: Then, the phosphorylation of Tyr-1054 and Tyr-1055 in Jurkat cells (Cobioer Biosciences: CBP61444) was detected by western blotting to determine the inhibitory effect of QL-1200186 on TYK2 receptor-mediated activation.

TYK2/JAK2 = experiment: IL-12/IL-18-induced IFNγ production in human whole blood, ELISA; type: cell-based; settings: IL-12-induced
Procedure: The inhibitory effect of QL-1200186 on IL-12/IL-18-induced IFNγ production in NK cells or human whole blood was determined by enzyme-linked immunosorbent assay (ELISA). NK92 cells were stimulated with recombinant human IL-12 (2 ng/mL; 200–12; PeproTech, Cranbury, NJ, USA) and recombinant human IL-18 (5 ng/mL; 9124-IL-050/CF; R&D Systems, Minneapolis, MN, USA) with or without QL-1200186 for 24 h at 37 °C. For human whole blood cells, whole blood (200 μL) was preincubated with the compound for 1 h and then stimulated with recombinant human IL-12 (2 ng/mL) or recombinant human IL-18 (10 ng/mL) for 24 h. After centrifugation, the supernatant was collected, and IFNγ production in the supernatant was measured with human IFNγ ELISA kits according to the manufacturer’s instructions (Biolegend, 430,104).

[4] = Caco-2 permeability assay; type: in vitro ADME
Procedure: (§1) The ADME properties of QL-1200186 in vitro were measured by the following assays: Caco-2 permeability assay, CYP inhibition assay, protein binding assay, and liver microsome assay. Each assay was performed as previously described.

Plasma protein binding = type: in vitro ADME
Procedure: as §1

[5] = Liver microsome metabolic stability; type: in vitro ADME
Procedure: as §1

Met ID in vitro = type: in vitro ADME, human
[6] = tested on: IL-12/IL-18-driven IFNγ production; experiment: IL-12/IL-18-induced IFNγ release in mice; type: in vivo
Procedure: Healthy female, specific pathogen-free C57BL/6 mice (6–8 weeks) were intraperitoneally (i.p.) injected with IL-12 and IL-18 to drive IFNγ production. Mice were numbered, weighed and divided randomly into seven groups of five according to body weight using Excel™ (Office™; Microsoft, Redmond, WA, USA). One hour after drug administration, IL-12 (0.01 μg/mouse) was i.p. injected. One hour later, recombinant IL-18 (0.1 μg/mouse) was injected. Whole blood was collected 3 h later and centrifuged (300 g, 10 min, 4 °C), and serum was collected. IFNγ expression in serum was determined by a CBA Flex kit (BD Biosciences).

[7] = tested on: imiquimod-induced psoriasis-like skin inflammation; experiment: Imiquimod-induced mouse model of psoriasis (PASI); type: in vivo, mice
Procedure: Healthy male BALB/c mice (18–20 g) were divided randomly into three groups of eight according to body weight using Excel™ (Office™; Microsoft). After 1 week of adaptive feeding, mice received a daily topical dose of 62.5 mg of 5% imiquimod cream ([…]; Aldara®; 3 M Pharmaceuticals, Maplewood, MN, USA) on the shaved back and left ear for 7 consecutive days. Control mice were treated similarly with vehicle cream (Vaseline lanette creme; Fagron, Amsterdam, the Netherlands). Mice in the treatment group were given QL-1200186 (5 mg/kg or 1 mg/kg) orally twice a day (p.o., b.i.d.).
The Psoriasis Area and Severity Index (PASI) consists of erythema, scaling and skin thickness measurements. Mice were evaluated from day 1 when imiquimod was given for 7 consecutive days. The thickness of the mouse skin was measured using a micrometer. The PK parameters were also measured.

Chain of JAK1 (JH1) (P23458 875-1153 limits assumed): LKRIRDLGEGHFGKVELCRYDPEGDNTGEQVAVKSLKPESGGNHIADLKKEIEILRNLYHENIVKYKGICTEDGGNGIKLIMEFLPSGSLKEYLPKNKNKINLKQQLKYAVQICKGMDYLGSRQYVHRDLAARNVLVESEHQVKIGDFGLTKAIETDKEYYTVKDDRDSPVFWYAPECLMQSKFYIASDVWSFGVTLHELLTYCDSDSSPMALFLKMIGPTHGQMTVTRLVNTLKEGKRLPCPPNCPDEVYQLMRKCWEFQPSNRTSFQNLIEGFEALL

With `CNC(=O)c1cnc2cc1Nc1cc(cc(-c3ccn(C)n3)c1OC)CCOCc1cccc(n1)N2` [QL-1200186, 5^6-methoxy-N-methyl-5^5-(1-methyl-1H-pyrazol-3-yl)-8-oxa-2,4-diaza-1(2,6),3(2,4)-dipyridina-5(1,3)-benzenacyclononaphane-3^5-carboxamide] the IC50 (JAK1 (JH1)) was greater than 9900 nM, the “Kinase assay (JH1) JAK1 IC50” value (JAK1 (JH1)) was “did not show inhibitory activity” and the IC50 (TYK2/JAK1 [1]) was 0.46 nM. For the same molecule, the IC50 (TYK2/JAK1 [2]) was 7.26 nM, the IC50 (TYK2/JAK1 [3]) was 1.61 nM and the “IFNα-stimulated phosphorylation of TYK2 in Jurkat cells” value (TYK2) was “blocked IFNα-stimulated phosphorylation of TYK2 in Jurkat cells in a concentration-dependent manner”. For the same molecule, the “IFNγ production in human whole blood” value (TYK2/JAK2) was “significantly reduced”, the “Caco-2 ER (efflux ratio)” value [4] was 1.4 and the “PPB (%, free)” value (Plasma protein binding; Dog) was 3.7%. The “PPB (%, free)” value (Plasma protein binding; Human) was 0.844%, the “PPB (%, free)” value (Plasma protein binding; Monkey) was 2.8% and the “PPB (%, free)” value (Plasma protein binding; Mouse) was 0.201%. The “PPB (%, free)” value (Plasma protein binding; Rat) was 1.3%, the “Metabolic Stability L.M. T1/2” value ([5]; Dog) was 1.42 h and the “Metabolic Stability L.M. T1/2” value ([5]; Human) was greater than 3.107 h. The “Metabolic Stability L.M. T1/2” value ([5]; Monkey) was 1.2 h, the “Metabolic Stability L.M. T1/2” value ([5]; Mouse) was 1.28 h and the “Metabolic Stability L.M. T1/2” value ([5]; Rat) was 1.823 h. For the same molecule, the “specific human metabolites in vitro (Met ID)” value (Met ID in vitro) was “no specific human metabolites in vitro”, the “inhibition of serum IFNγ production” value ([6]; oral 10 mg/kg) was 97.8% and the “inhibition of serum IFNγ production” value ([6]; oral, 0.1 mg/kg) was 77.1%. For the same molecule, the “inhibition of serum IFNγ production” value ([6]; oral, 1 mg/kg) was 86.9%, the “psoriasis severity according to the thickness score” value ([7]; day 7) was “significantly alleviated psoriasis severity” and the “psoriasis-like inflammatory symptoms (erythema, scaling, thickening; PASI)” value ([7]; vs imiquimod group, p.o., b.i.d., n = 8) was “significantly improved psoriasis-like inflammatory symptoms”.
